Like-named read-outs stand apart in the source and are kept apart here.
What was measured:
human plasma kallikrein = human plasma kallikrein (Homo sapiens (Human), UniProt P03952); assay: Kallikrein inhibition assay (FLINT) utilizing a quenched AMC peptide substrate; format: biochemical; conditions: 30 min preincubation, read-out: Kallikrein Kin Inh IC50
How it was run: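 Fluorogenic Z-Gly-Pro-Arg-AMC cleavage (50 μM substrate, 2 nM kallikrein, Tris pH 7.5, CaCl2, BSA, CHAPS, 2% DMSO) read kinetically at 340/440 nm for 30 min after 30-min compound pre-incubation. Compounds in 11-point 3-fold series from 1 μM; percent inhibition fitted to four-parameter equation for IC50.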

Factor XIa = Factor XIa (Homo sapiens (Human), UniProt P03951); assay: Factor XIa inhibition assay (FLINT) utilizing a fluorophore-quencher pair peptide substrate; format: biochemical; conditions: 30 min preincubation, kinetic reads over 30 min, read-out: FXIa Kin Inh IC50
How it was run: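 FXIa ([…]) preincubated 30 min with compound (11-point 3-fold dilution, top 100 nM, 2% DMSO), then 15 μM quenched FXI Arg146-based peptide added; Tris pH 7.5, CaCl2, BSA, CHAPS. Fluorescence 485/520 nm read kinetically every 5 min over 30 min at RT; IC50 by 4-parameter fit.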

[1] = kinetic reads over 30 min, Z-Gly-Pro-Arg-AMC substrate 50 μM
[2] = 5Fam-[…]-K5Tamra substrate 15 μM
[3] = 5Fam-KLTRAETV-K5Tamra substrate 15 μM

Factor XIa, sequence (P03951 388-625): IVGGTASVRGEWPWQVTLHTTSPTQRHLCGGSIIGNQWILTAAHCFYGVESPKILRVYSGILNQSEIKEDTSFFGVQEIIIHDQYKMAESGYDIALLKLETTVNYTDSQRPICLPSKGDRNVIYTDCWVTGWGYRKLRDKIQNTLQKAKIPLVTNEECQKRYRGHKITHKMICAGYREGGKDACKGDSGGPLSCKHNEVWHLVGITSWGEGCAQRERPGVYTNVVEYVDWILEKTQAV
Factor XIa, sequence (P03951 19-387 partner): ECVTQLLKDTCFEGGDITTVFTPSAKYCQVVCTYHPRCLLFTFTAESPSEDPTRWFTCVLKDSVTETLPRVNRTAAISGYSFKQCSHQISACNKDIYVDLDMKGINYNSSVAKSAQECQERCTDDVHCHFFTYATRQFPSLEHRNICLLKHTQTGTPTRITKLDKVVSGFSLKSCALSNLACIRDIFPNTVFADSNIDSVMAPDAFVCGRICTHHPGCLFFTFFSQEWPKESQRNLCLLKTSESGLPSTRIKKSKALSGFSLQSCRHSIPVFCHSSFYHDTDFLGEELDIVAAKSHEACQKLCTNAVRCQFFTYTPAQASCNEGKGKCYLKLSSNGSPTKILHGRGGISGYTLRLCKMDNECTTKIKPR
human plasma kallikrein, sequence (P03952 391-638): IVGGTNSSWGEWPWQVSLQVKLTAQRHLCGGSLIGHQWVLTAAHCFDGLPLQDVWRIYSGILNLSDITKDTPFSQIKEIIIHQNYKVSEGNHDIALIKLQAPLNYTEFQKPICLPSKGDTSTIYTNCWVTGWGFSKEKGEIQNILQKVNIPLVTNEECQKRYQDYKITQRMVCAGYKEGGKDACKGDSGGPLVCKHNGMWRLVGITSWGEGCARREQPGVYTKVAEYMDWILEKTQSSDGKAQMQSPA
human plasma kallikrein, sequence (P03952 20-390 partner): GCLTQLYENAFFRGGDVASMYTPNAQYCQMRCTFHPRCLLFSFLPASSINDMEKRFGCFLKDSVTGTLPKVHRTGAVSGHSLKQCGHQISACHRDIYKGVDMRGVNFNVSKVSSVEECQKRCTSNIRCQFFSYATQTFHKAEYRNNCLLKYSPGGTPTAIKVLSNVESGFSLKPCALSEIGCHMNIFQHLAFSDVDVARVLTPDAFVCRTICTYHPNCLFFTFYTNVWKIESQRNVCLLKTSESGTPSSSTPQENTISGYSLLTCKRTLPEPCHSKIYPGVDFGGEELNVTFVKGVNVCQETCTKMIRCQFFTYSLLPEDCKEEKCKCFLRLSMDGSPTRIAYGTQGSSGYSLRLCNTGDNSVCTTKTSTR

| IC50 (human plasma kallikrein; [1]) | IC50 (Factor XIa; [2]) | IC50 (human plasma kallikrein; μM, kinetic reads) | IC50 (Factor XIa; [3]) | SMILES |
| --- | --- | --- | --- | --- |
| 0.0023 µM | 6.5 nM |  |  | Nc1ccn(-c2cc(-c3cnc([C@H]4CC[C@@H]5CC(c6c(-n7cnnn7)ccc(Cl)c6F)=CC(=O)N54)[nH]3)ccn2)n1 (single isomer, unassigned) [Example 72, (3R*,8aR)-3-(5-(2-(3-amino-1H-pyrazol-1-yl)pyridin-4-yl)-1H-imidazol-2-yl)-7-(3-chloro-2-fluoro-6-(1H-tetrazol-1-yl)phenyl)-2,3,8,8a-tetrahydroindolizin-5(1H)-one] |
|  |  | 2.05 µM | 134 nM | Cn1nncc1-c1c[nH]c([C@@H]2CCC3CC(c4c(-n5cnnn5)ccc(Cl)c4F)=CC(=O)N32)n1 (stereo partly drawn) [Example 339, (3S)-7-(3-Chloro-2-fluoro-6-(1H-tetrazol-1-yl)phenyl)-3-(4-(1-methyl-1H-1,2,3-triazol-5-yl)-1H-imidazol-2-yl)-2,3,8,8a-tetrahydroindolizin-5(1H)-one] |
| 0.0012 µM |  |  | 0.3 nM | Nc1cc(-c2[nH]c([C@@H]3CC[C@@H]4CC(c5c(-n6cnnn6)ccc(Cl)c5F)=CC(=O)N43)nc2Cl)ccn1 [Example 372, (3S,8aR)-3-(5-(2-aminopyridin-4-yl)-4-chloro-1H-imidazol-2-yl)-7-(3-chloro-2-fluoro-6-(1H-tetrazol-1-yl)phenyl)-2,3,8,8a-tetrahydroindolizin-5(1H)-one] |
| 0.0542 µM |  |  | 44.7 nM | O=C1C=C(c2c(-n3cnnn3)ccc(Cl)c2F)C[C@H]2CC[C@@H](c3nc(-c4cnc5[nH]ncc5c4)c[nH]3)N12 [Example 41, (3S,8aR)-3-(4-(1H-pyrazolo[3,4-b]pyridin-5-yl)-1H-imidazol-2-yl)-7-(3-chloro-2-fluoro-6-(1H-tetrazol-1-yl)phenyl)-2,3,8,8a-tetrahydroindolizin-5(1H)-one] |
| 0.0379 µM |  |  | 46.5 nM | NC(=O)c1ncc(-c2c[nH]c([C@@H]3CC[C@H]4CC(c5c(-n6cc(C(F)(F)F)nn6)ccc(Cl)c5F)=CC(=O)N43)n2)s1 (single isomer, unassigned) [Example 209] |
| 0.0054 µM | 0.4 nM |  |  | [2H]c1cc(Cl)c(F)c(C2=CC(=O)N3[C@H](CC[C@H]3c3nc([2H])c(-c4ccc(N)nc4F)[nH]3)C2)c1-n1cnnn1 [Example 129, (3S,8aR)-3-(5-(6-amino-2-fluoropyridin-3-yl)-1H-imidazol-2-yl-4-d)-7-(3-chloro-2-fluoro-6-(1H-tetrazol-1-yl)phenyl-5-d)-2,3,8,8a-tetrahydroindolizin-5(1H)-one] |
| 0.0355 µM |  |  | 2.7 nM | CCOC(=O)NCc1nccc(-c2cnc([C@@H]3CC[C@@H]4CC(c5c(-n6cnnn6)ccc(Cl)c5F)=CC(=O)N43)[nH]2)c1F [Example 12, Ethyl-N-[[4-[2-[(3S,8aR)-7-[3-Chloro-2-fluoro-6-(tetrazol-1-yl)phenyl]-5-oxo-2,3,8,8a-tetrahydro-1H-indolizin-3-yl]-1H-imidazol-5-yl]-3-fluoro-2-pyridyl]methyl]carbamate] |
| 0.058 µM |  |  | 30 nM | Nc1ccnn1-c1nccc(-c2c[nH]c([C@@H]3CC[C@@H]4CC(c5c(-n6cnnn6)ccc(Cl)c5F)=CC(=O)N43)n2)c1F [Example 68] |
| 0.115 µM |  |  | 14.5 nM | O=C1C[C@H](c2c(-n3cnnn3)ccc(Cl)c2F)C[C@H]2CC[C@@H](c3ncc(-c4ccnc(CO)c4F)[nH]3)N12 [Example 378, (3S,7R,8aR)-7-(3-chloro-2-fluoro-6-(1H-tetrazol-1-yl)phenyl)-3-(5-(3-fluoro-2-(hydroxymethyl)pyridin-4-yl)-1H-imidazol-2-yl)hexahydroindolizin-5(1H)-one] |
| 0.0032 µM |  |  | 4.6 nM | O=C1C=C(c2c(-n3cnnn3)ccc(Cl)c2F)C[C@H]2CC[C@@H](c3ncc(-c4ccnc(-n5nccn5)c4)[nH]3)N12 [Example 86, (3S,8aR)-7-[3-chloro-2-fluoro-6-(tetrazol-1-yl)phenyl]-3-[5-[2-(triazol-2-yl)-4-pyridyl]-1H-imidazol-2-yl]-2,3,8,8a-tetrahydro-1H-indolizin-5-one] |
| 0.0038 µM | 0.6 nM |  |  | O=C1C=C(c2c(-n3cnnn3)ccc(Cl)c2F)C[C@H]2CC[C@@H](c3ncc(-c4ccnc(OCC5(O)CC5)c4F)[nH]3)N12 [Example 183, (3S,8aR)-7-(3-chloro-2-fluoro-6-(1H-tetrazol-1-yl)phenyl)-3-(5-(3-fluoro-2-((1-hydroxycyclopropyl)methoxy)pyridin-4-yl)-1H-imidazol-2-yl)-2,3,8,8a-tetrahydroindolizin-5(1H)-one] |
| 0.0046 µM |  |  | 1 nM | O=C1C=C(c2c(-n3cnnn3)ccc(Cl)c2F)C[C@H]2CC[C@@H](c3nc(-c4ccc5[nH]cnc5c4)c[nH]3)N12 [Example 42, (3S,8aR)-3-(4 (1H-benzo[d]imidazol-5-yl)-1H-imidazol-2-yl)-7-(3-chloro-2-fluoro-6-(1H-tetrazol-1-yl)phenyl)-2,3,8,8a-tetrahydroindolizin-5(1H)-one] |
| 0.0068 µM | 0.3 nM |  |  | Nc1ccc(-c2cnc([C@@H]3CC[C@@H]4CC(c5c(-n6cnnn6)ccc(Cl)c5F)=CC(=O)N43)[nH]2)c(F)n1 [Example 358, (3S,8aR)-3-[5-(6-amino-2-fluoro-3-pyridyl)-1H-imidazol-2-yl]-7-[3-chloro-2-fluoro-6-(tetrazol-1-yl)phenyl]-2,3,8,8a-tetrahydro-1H-indolizin-5-one] |
| 0.0019 µM |  |  | 1.5 nM | O=C1C=C(c2c(-n3cnnn3)ccc(Cl)c2F)C[C@H]2CC[C@@H](c3nc(-c4ccnc(-c5ccn[nH]5)c4F)c[nH]3)N12 (single isomer, unassigned) [Example 115, (3S,8a*R)-7-(3-chloro-2-fluoro-6-(1H-tetrazol-1-yl)phenyl)-3-(4-(3-fluoro-2-(1H-pyrazol-5-yl)pyridin-4-yl)-1H-imidazol-2-yl)-2,3,8,8a-tetrahydroindolizin-5(1H)-one] |
| 0.0339 µM |  |  | 6.5 nM | C[C@@H](O)c1nccc(-c2cnc([C@@H]3CC[C@@H]4CC(c5c(-n6cnnn6)ccc(Cl)c5F)=CC(=O)N43)[nH]2)c1F [Example 185, (3S,8aR)-7-(3-chloro-2-fluoro-6-(1H-tetrazol-1-yl)phenyl)-3-(5-(3-fluoro-2-((R)-1-hydroxyethyl)pyridin-4-yl)-1H-imidazol-2-yl)-2,3,8,8a-tetrahydroindolizin-5(1H)-one] |
| 0.0216 µM |  |  | 5.3 nM | O=C1C=C(c2c(-n3cnnn3)ccc(Cl)c2F)C[C@H]2CC[C@@H](c3ncc(-c4ccc(CO)nc4Cl)[nH]3)N12 [Example 236, (3S,8aR)-7-(3-Chloro-2-fluoro-6-(1H-tetrazol-1-yl)phenyl)-3-(5-(2-chloro-6-(hydroxymethyl)pyridin-3-yl)-1H-imidazol-2-yl)-2,3,8,8a-tetrahydroindolizin-5(1H)-one] |
| 0.0078 µM |  |  | 1 nM | CC(C)(O)CCc1nccc(-c2cnc([C@@H]3CC[C@@H]4CC(c5c(-n6cnnn6)ccc(Cl)c5F)=CC(=O)N43)[nH]2)c1F (single isomer, unassigned) [Example 158, (3*S,8a*R)-7-(3-chloro-2-fluoro-6-(1H-tetrazol-1-yl)phenyl)-3-(5-(3-fluoro-2-(3-hydroxy-3-methylbutyl)pyridin-4-yl)-1H-imidazol-2-yl)-2,3,8,8a-tetrahydroindolizin-5(1H)-one] |
| 0.0042 µM |  |  | 0.8 nM | Nc1nccc(-c2cnc([C@@H]3CC[C@@H]4CC(c5c(-n6cnnn6)ccc(Cl)c5F)=CC(=O)N43)[nH]2)c1Cl [Example 380, (3S,8aR)-3-(5-(2-amino-3-chloropyridin-4-yl)-1H-imidazol-2-yl)-7-(3-chloro-2-fluoro-6-(1H-tetrazol-1-yl)phenyl)-2,3,8,8a-tetrahydroindolizin-5(1H)-one] |
| 0.0355 µM | 5.4 nM |  |  | C[C@H](O)c1nccc(-c2[nH]c([C@@H]3CC[C@@H]4CC(c5cc(Cl)ccc5-n5cnnn5)=CC(=O)N43)nc2F)c1F (relative stereo) [Example 46, (3S,8aR)-7-(5-chloro-2-(1H-tetrazol-1-yl)phenyl)-3-(4-fluoro-5-(3-fluoro-2-((S*)-1-hydroxyethyl)pyridin-4-yl)-1H-imidazol-2-yl)-2,3,8,8a-tetrahydroindolizin-5(1H)-one] |
| 0.0059 µM |  |  | 3.5 nM | O=C1Cc2cc(-c3cnc([C@@H]4CC[C@H]5CC(c6c(-n7cnnn7)ccc(Cl)c6F)=CC(=O)N54)[nH]3)ccc2N1 [Example 283, 5-(2-((3S,8aS)-7-(3-Chloro-2-fluoro-6-(1H-tetrazol-1-yl)phenyl)-5-oxo-1,2,3,5,8,8a-hexahydroindolizin-3-yl)-1H-imidazol-5-yl)indolin-2-one] |
| 0.0004 µM |  |  | 0.2 nM | O=C1C=C(c2c(-n3cnnn3)ccc(Cl)c2F)C[C@@H]2CC[C@@H](c3ncc(-c4ccc5[nH]c(=O)ccc5c4)[nH]3)N12 [Example 270, 6-[2-[(3S,8aS)-7-[3-Chloro-2-fluoro-6-(tetrazol-1-yl)phenyl]-5-oxo-2,3,8,8a-tetrahydro-1H-indolizin-3-yl]-1H-imidazol-5-yl]-1H-quinolin-2-one] |
| 0.0396 µM |  |  | 0.7 nM | O=C(O)c1ccc(-c2c[nH]c(C3CCC4CC(c5cc(Cl)ccc5-n5cc(C(F)(F)F)nn5)=CC(=O)N43)n2)s1 (centres unmarked) [Example 373, 5-(2-(7-(5-chloro-2-(4-(trifluoromethyl)-1H-1,2,3-triazol-1-yl)phenyl)-5-oxo-1,2,3,5,8,8a-hexahydroindolizin-3-yl)-1H-imidazol-4-yl)thiophene-2-carboxylic acid] |
